Source: article PMC11390765 (Cancer Chemotherapy and Pharmacology, 2024)

Experiment: Safety and tolerability (adverse events, CTCAE v5.0; full analysis set)
Format: in vivo, human
Experimental: Safety and tolerability were evaluated in terms of AEs, which were classified and graded according to the National Cancer Institute (NCI) Common Terminology Criteria for Adverse Events (CTCAE) v5.0; vital signs; 12-lead electrocardiogram (ECG); and clinical laboratory assessments, including clinical chemistry and hematology parameters, urinalysis, HbA1c levels, and lipid profiles.
Efficacy analyses were also performed on the full analysis set. Summary and/or descriptive statistics were used to analyze baseline demographic, safety, and efficacy data; PFS and DoR were estimated using Kaplan–Meier methodology.

[1] = part B period 4, capivasertib only 400 mg BID, N=19
[2] = period 2, days 2–7 cycle 1, capivasertib only 400 mg BID, N=21
[3] = total, all treatment periods, N=21

NC1(C(=O)N[C@@H](CCO)c2ccc(Cl)cc2)CCN(c2nc[nH]c3nccc2-3)CC1 [capivasertib]
QT prolongation (ECG, whole study): no reports of QT prolongation
patients requiring a capivasertib dose interruption due to AEs (N = 21): 66.7%
patients requiring a capivasertib dose reduction due to AEs (N = 21): 23.8%
patients with AEs leading to permanent discontinuation of capivasertib (N = 21): Three
safety profile (administered with or without midazolam): manageable safety profile
Anemia, frequency of patients overall (all treatment periods, N = 21): 28.6%
Diarrhea, frequency of patients overall (all treatment periods, N = 21): 76.2%
Fatigue, frequency of patients overall (all treatment periods, N = 21): 33.3%
Hyperglycemia, frequency of patients overall (all treatment periods, N = 21): 28.6%
Nausea, frequency of patients overall (all treatment periods, N = 21): 33.3%
patients who experienced grade 3 AEs (in total, N = 21): 57.1%
patients who experienced grade ≥ 3 AEs (in total, N = 21): 66.7%
serious AEs (SAEs) reported in the study (n = 1 period 2, n = 1 period 3, n = 3 part B, only one considered related to study treatment): five
deaths during the study (one in part A, three in part B, none deemed possibly related to study treatment): four
Abdominal pain, any grade [1]: 1 (5.3) n (%)
Abdominal pain, grade ≥ 3 [1]: 1 (5.3) n (%)
Anemia, any grade [1]: 4 (21.1) n (%)
Anemia, grade ≥ 3 [1]: 0 n (%)
Any AE, any grade [1]: 17 (89.5) n (%)
Any AE, grade ≥ 3 [1]: 9 (47.4) n (%)
Asthenia, any grade [1]: 2 (10.5) n (%)
Asthenia, grade ≥ 3 [1]: 1 (5.3) n (%)
Blood alkaline phosphatase increased, any grade [1]: 0 n (%)
Blood alkaline phosphatase increased, grade ≥ 3 [1]: 0 n (%)
Blood bilirubin increased, any grade [1]: 2 (10.5) n (%)
Blood bilirubin increased, grade ≥ 3 [1]: 1 (5.3) n (%)
Blood creatinine increased, any grade [1]: 3 (15.8) n (%)
Blood creatinine increased, grade ≥ 3 [1]: 0 n (%)
COVID-19, any grade [1]: 1 (5.3) n (%)
COVID-19, grade ≥ 3 [1]: 1 (5.3) n (%)
Decreased appetite, any grade [1]: 4 (21.1) n (%)
Decreased appetite, grade ≥ 3 [1]: 2 (10.5) n (%)
Diarrhea, any grade [1]: 7 (36.8) n (%)
Diarrhea, grade ≥ 3 [1]: 1 (5.3) n (%)
Fatigue, any grade [1]: 4 (21.1) n (%)
Fatigue, grade ≥ 3 [1]: 2 (10.5) n (%)
Gamma-glutamyl transferase increased, any grade [1]: 1 (5.3) n (%)
Gamma-glutamyl transferase increased, grade ≥ 3 [1]: 1 (5.3) n (%)
Hyperglycemia, any grade [1]: 3 (15.8) n (%)
Hyperglycemia, grade ≥ 3 [1]: 0 n (%)
Hypoalbuminemia, any grade [1]: 0 n (%)
Hypoalbuminemia, grade ≥ 3 [1]: 0 n (%)
Hypokalemia, any grade [1]: 3 (15.8) n (%)
Hypokalemia, grade ≥ 3 [1]: 1 (5.3) n (%)
Hyponatremia, any grade [1]: 3 (15.8) n (%)
Hyponatremia, grade ≥ 3 [1]: 1 (5.3) n (%)
Hypotension, any grade [1]: 3 (15.8) n (%)
Hypotension, grade ≥ 3 [1]: 1 (5.3) n (%)
Large intestinal obstruction, any grade [1]: 1 (5.3) n (%)
Large intestinal obstruction, grade ≥ 3 [1]: 1 (5.3) n (%)
Lymphocyte count decreased, any grade [1]: 2 (10.5) n (%)
Lymphocyte count decreased, grade ≥ 3 [1]: 0 n (%)
Nausea, any grade [1]: 4 (21.1) n (%)
Nausea, grade ≥ 3 [1]: 0 n (%)
Rash (group term), any grade [1]: 2 (10.5) n (%)
Rash (group term), grade ≥ 3 [1]: 0 n (%)
Sepsis, any grade [1]: 1 (5.3) n (%)
Sepsis, grade ≥ 3 [1]: 1 (5.3) n (%)
Thrombocytopenia, any grade [1]: 0 n (%)
Thrombocytopenia, grade ≥ 3 [1]: 0 n (%)
Ureteric obstruction, any grade [1]: 1 (5.3) n (%)
Ureteric obstruction, grade ≥ 3 [1]: 1 (5.3) n (%)
Urticaria, any grade [1]: 0 n (%)
Urticaria, grade ≥ 3 [1]: 0 n (%)
patients who experienced a grade 5 AE (sepsis) (part B, not considered related to capivasertib or midazolam): 4.8%
Abdominal pain, any grade [2]: 1 (4.8) n (%)
Abdominal pain, grade ≥ 3 [2]: 0 n (%)
Anemia, any grade [2]: 2 (9.5) n (%)
Anemia, grade ≥ 3 [2]: 1 (4.8) n (%)
Any AE, any grade [2]: 10 (47.6) n (%)
Any AE, grade ≥ 3 [2]: 3 (14.3) n (%)
Asthenia, any grade [2]: 1 (4.8) n (%)
Asthenia, grade ≥ 3 [2]: 0 n (%)
Blood alkaline phosphatase increased, any grade [2]: 0 n (%)
Blood alkaline phosphatase increased, grade ≥ 3 [2]: 0 n (%)
Blood bilirubin increased, any grade [2]: 0 n (%)
Blood bilirubin increased, grade ≥ 3 [2]: 0 n (%)
Blood creatinine increased, any grade [2]: 0 n (%)
Blood creatinine increased, grade ≥ 3 [2]: 0 n (%)
COVID-19, any grade [2]: 0 n (%)
COVID-19, grade ≥ 3 [2]: 0 n (%)
Decreased appetite, any grade [2]: 0 n (%)
Decreased appetite, grade ≥ 3 [2]: 0 n (%)
Diarrhea, any grade [2]: 6 (28.6) n (%)
Diarrhea, grade ≥ 3 [2]: 0 n (%)
Fatigue, any grade [2]: 0 n (%)
Fatigue, grade ≥ 3 [2]: 0 n (%)
Gamma-glutamyl transferase increased, any grade [2]: 0 n (%)
Gamma-glutamyl transferase increased, grade ≥ 3 [2]: 0 n (%)
Hyperglycemia, any grade [2]: 1 (4.8) n (%)
Hyperglycemia, grade ≥ 3 [2]: 0 n (%)
Hypoalbuminemia, any grade [2]: 1 (4.8) n (%)
Hypoalbuminemia, grade ≥ 3 [2]: 1 (4.8) n (%)
Hypokalemia, any grade [2]: 1 (4.8) n (%)
Hypokalemia, grade ≥ 3 [2]: 0 n (%)
Hyponatremia, any grade [2]: 1 (4.8) n (%)
Hyponatremia, grade ≥ 3 [2]: 0 n (%)
Hypotension, any grade [2]: 0 n (%)
Hypotension, grade ≥ 3 [2]: 0 n (%)
Large intestinal obstruction, any grade [2]: 0 n (%)
Large intestinal obstruction, grade ≥ 3 [2]: 0 n (%)
Lymphocyte count decreased, any grade [2]: 1 (4.8) n (%)
Lymphocyte count decreased, grade ≥ 3 [2]: 1 (4.8) n (%)
Nausea, any grade [2]: 2 (9.5) n (%)
Nausea, grade ≥ 3 [2]: 0 n (%)
Rash (group term), any grade [2]: 0 n (%)
Rash (group term), grade ≥ 3 [2]: 0 n (%)
Sepsis, any grade [2]: 0 n (%)
Sepsis, grade ≥ 3 [2]: 0 n (%)
Thrombocytopenia, any grade [2]: 1 (4.8) n (%)
Thrombocytopenia, grade ≥ 3 [2]: 1 (4.8) n (%)
Ureteric obstruction, any grade [2]: 0 n (%)
Ureteric obstruction, grade ≥ 3 [2]: 0 n (%)
Urticaria, any grade [2]: 0 n (%)
Urticaria, grade ≥ 3 [2]: 0 n (%)
Abdominal pain, any grade [3]: 2 (9.5) n (%)
Abdominal pain, grade ≥ 3 [3]: 1 (4.8) n (%)
Anemia, any grade [3]: 6 (28.6) n (%)
Anemia, grade ≥ 3 [3]: 1 (4.8) n (%)
Any AE, any grade [3]: 21 (100) n (%)
Any AE, grade ≥ 3 [3]: 14 (66.7) n (%)
Asthenia, any grade [3]: 3 (14.3) n (%)
Asthenia, grade ≥ 3 [3]: 1 (4.8) n (%)
Blood alkaline phosphatase increased, any grade [3]: 1 (4.8) n (%)
Blood alkaline phosphatase increased, grade ≥ 3 [3]: 1 (4.8) n (%)
Blood bilirubin increased, any grade [3]: 2 (9.5) n (%)
Blood bilirubin increased, grade ≥ 3 [3]: 1 (4.8) n (%)
Blood creatinine increased, any grade [3]: 3 (14.3) n (%)
Blood creatinine increased, grade ≥ 3 [3]: 0 n (%)
COVID-19, any grade [3]: 2 (9.5) n (%)
COVID-19, grade ≥ 3 [3]: 1 (4.8) n (%)
Decreased appetite, any grade [3]: 5 (23.8) n (%)
Decreased appetite, grade ≥ 3 [3]: 2 (9.5) n (%)
Diarrhea, any grade [3]: 16 (76.2) n (%)
Diarrhea, grade ≥ 3 [3]: 1 (4.8) n (%)
Fatigue, any grade [3]: 7 (33.3) n (%)
Fatigue, grade ≥ 3 [3]: 2 (9.5) n (%)
Gamma-glutamyl transferase increased, any grade [3]: 1 (4.8) n (%)
Gamma-glutamyl transferase increased, grade ≥ 3 [3]: 1 (4.8) n (%)
Hyperglycemia, any grade [3]: 6 (28.6) n (%)
Hyperglycemia, grade ≥ 3 [3]: 1 (4.8) n (%)
Hypoalbuminemia, any grade [3]: 1 (4.8) n (%)
Hypoalbuminemia, grade ≥ 3 [3]: 1 (4.8) n (%)
Hypokalemia, any grade [3]: 5 (23.8) n (%)
Hypokalemia, grade ≥ 3 [3]: 1 (4.8) n (%)
Hyponatremia, any grade [3]: 4 (19.0) n (%)
Hyponatremia, grade ≥ 3 [3]: 1 (4.8) n (%)
Hypotension, any grade [3]: 4 (19.0) n (%)
Hypotension, grade ≥ 3 [3]: 1 (4.8) n (%)
Large intestinal obstruction, any grade [3]: 1 (4.8) n (%)
Large intestinal obstruction, grade ≥ 3 [3]: 1 (4.8) n (%)
Lymphocyte count decreased, any grade [3]: 3 (14.3) n (%)
Lymphocyte count decreased, grade ≥ 3 [3]: 1 (4.8) n (%)
Nausea, any grade [3]: 7 (33.3) n (%)
Nausea, grade ≥ 3 [3]: 0 n (%)
Rash (group term), any grade [3]: 8 (38.1) n (%)
Rash (group term), grade ≥ 3 [3]: 3 (14.3) n (%)
Sepsis, any grade [3]: 1 (4.8) n (%)
Sepsis, grade ≥ 3 [3]: 1 (4.8) n (%)
Thrombocytopenia, any grade [3]: 1 (4.8) n (%)
Thrombocytopenia, grade ≥ 3 [3]: 1 (4.8) n (%)
Ureteric obstruction, any grade [3]: 1 (4.8) n (%)
Ureteric obstruction, grade ≥ 3 [3]: 1 (4.8) n (%)
Urticaria, any grade [3]: 1 (4.8) n (%)
Urticaria, grade ≥ 3 [3]: 1 (4.8) n (%)
patients who experienced a grade 4 AE (thrombocytopenia) (treatment period 2, not considered related to capivasertib or midazolam): 4.8%
